According to US20130150384A1, “METHOD FOR TREATMENT OF BRAIN CANCERS” (KOREA INSTITUTE OF SCIENCE AND TECHNOLOGY, priority 2008, published 2013):
“Also recorded” adds a separate entry of the source.

Assays:
glioma = assay: Soft agar assay (colony formation); type: cell-based, human; conditions: 0.5, 1, 2, 5, or 10 mM caffeine, 14 to 17 days
Protocol: Cells (1×10^4) were seeded into 6-well plates in a soft agar (0.3%, Difco) overlaying a 0.6% base agar. […] Cells were incubated at 37 for 14 to 17 days to allow colonies to develop. Afterward colonies were stained with 0.05% cresyl violet and photographed. […] Each assay was done in triplicate (n=3)

[1] = test system: human cell line (SH-SY5Y, ATCC); assay: Block against bradykinin-induced intracellular Ca^2+ release in human glioblastoma cell line; type: cell-based; conditions: 10 mM caffeine, 10 μM bradykinin
HEK293T cell line = assay: Block against TFLLR-induced intracellular Ca^2+ release in HEK293T; type: cell-based; conditions: 10 mM caffeine, 30 μM TFLLR
U87MG cells = assay: Xenograft tumor growth assay; type: in vivo, athymic mice (Balb/c nu/nu); conditions: caffeine 1 mg/ml in drinking water from day 7, subcutaneous U87MG, 4 weeks
Protocol: Five-week-old athymic mice (Balb/c nu/nu) were obtained from Central Lab. Animal Inc. (Japan). For the xenograft tumor growth assay, U87MG cells (3×10^5 cells/150 ul PBS) were injected subcutaneously into the right flanks of the mice (n=5 to 10 mice per group), and the experiment was conducted in triplicate. […] The control animals were given distilled water. Tumor mass was estimated twice per week for 4 weeks, and tumor volumes were calculated by the formula: […]

human U87MG = assay: Survival in orthotropic implantation model; conditions: 1 mg/ml caffeine containing drinking water, intracranial U87MG
GBM cells = assay: Ca^2+ imaging of Fura2-AM loaded GBM cells; type: cell-based, human
Text: Error bars represent SEM.
It is hypothesized that these molecules existing in the Ca^2+ release pathway serve as a potential molecular target in controlling migration and invasion of GBM.

Q: Which results are given for Cn1c(=O)c2c(ncn2C)n(C)c1=O [caffeine]?
A: proliferation / anchorage-independent growth (colony numbers) (glioma): reduced the anchorage-independent growth of glioma in vitro, in a dose dependent manner; also recorded: significantly inhibited; intracellular Ca^2+ release [1]: blocked; intracellular Ca^2+ release (HEK293T cell line): blocked; increase of tumor mass (U87MG cells): significantly inhibited; survival rate (human U87MG): significantly increase the survival rate

Q: How did the “release of Ca^2+ from intracellular stores in response to activation of GPCRs and RTKs” value (GBM cells) turn out when COc1ccc2c(c1)CC[C@@H]1[C@@H]2CC[C@]2(C)[C@@H](NCCCCCCN3C(=O)C=CC3=O)CC[C@@H]12 [U73122] was run?
A: The value was “completely inhibited”.

Q: With C/C=C(/C)C(=O)O[C@H]1C(C)=C2[C@H]([C@@H]1OC(=O)CCCCCCC)[C@@](C)(OC(C)=O)C[C@H](OC(=O)CCC)[C@@]1(O)[C@H]2OC(=O)[C@@]1(C)O [thapsigargin] as the molecule, how does the “subsequent increase in [Ca^2+]i by bradykinin after store depletion” value (GBM cells) read?
A: Its value is “completely inhibited”.
